Laboratory results published in publication PMC7352059 (Biotechnology Reports, 2020).

Experiments:
Test in all cases: dopachrome formation, absorbance […] nm, non-linear regression
Settings in all cases: free enzyme; 0.05 M Na-phosphate pH 6.5; 1-30 mM L-DOPA
[1] = test system: tyrosinase from C. esculenta; assay type: biochemical, Colocasia esculenta
[2] = test system: tyrosinase from D. rotundata; assay type: biochemical, Dioscorea cayenensis subsp. rotundata
tyrosinase from D. alata = assay type: biochemical, Dioscorea alata
[3] = test system: tyrosinase from D. praehensilis; assay type: biochemical, Dioscorea praehensilis

Km [1]: 23.7 ± 14 mM
Km [2]: 6.8 ± 2.6 mM
Km (tyrosinase from D. alata): 20 ± 11 mM
Km [3]: 9.6 ± 3.7 mM
SMILES: N[C@@H](Cc1ccc(O)c(O)c1)C(=O)O [L-DOPA, 3,4-dihydroxyphenyl-L-alanine]
